In US20070203215A1, “Methods & Compositions For Enhancing Pharmaceutical Treatments” (Taiji Biomedical, Inc., priority 1999, published 2007):
Read-outs that look alike come from different tables or passages of the source.

Legend:
[1] = Blood-brain barrier penetration of loperamide, mouse hot-plate test; type: in vivo, mice
From the text: These increases were dose dependent with respect to loperamide.

tumor-bearing mice = conditions: 20 mg/kg paclitaxel with the compound of Formula 2
CYP2C8 = CYP2C8 (Homo sapiens, UniProt P10632); assay: Metabolism by P450 CYP2C8; type: in vitro ADME
From the text: (§1) Two enzymes primarily responsible for metabolism of paclitaxel are P450 CYP3A4 and CYP2C8. Some P-gp inhibitors are also metabolized by P450 CYP 3A4, leading to inhibition of paclitaxel metabolism. This may contribute to PK interactions with paclitaxel.

[2] = test system: MDA/LCC6 human breast carcinoma xenografts; assay: In vivo antitumor efficacy, non-P-gp-expressing MDA/LCC6 xenografts; parameters: species or system SCID mice; conditions: non-P-gp expressing tumor cells, FIG. 2
Method: Anti-tumor efficacy experiments with orthotopic MDA/LCC6 and MDA/LCC6^MDR1 tumors were conducted in female SCID/RAG2 mice. Ascites propagated cells (2×10^6 in 50 μl) were injected into mammary fat pads bilaterally on day 0 before randomization into groups of 5 mice per group. Paclitaxel (12 mg/kg/dose) was administered QD i.v. (tail vein) in 200 μl saline/Cremophor/ethanol (8/1/1 by volume) on days 5, 12, 19, and 26. The compound of Formula 2-free base (30 mg/kg/dose) was administered BID p.o. by gavage in 100 μl PEG 400/Tween 20 (9/1 by volume) on days 4-6, 11-13, 18-20, and 25-27. Mean body weights were recorded at least every other day. Tumor weight was monitored approximately every other day by caliper measurements and calculated according to the formula (Tumor weight =(length×width^2)÷2). This conversion formula was verified by comparing the calculation derived tumor weights to excised and weighed tumors. Animals bearing ulcerated tumors or where tumor weight exceeded 10% of the animal's body weight were terminated. The weights of the bilateral tumors were averaged for each mouse and mean tumor weights for each treatment group±standard error of the mean were calculated. Statistical analysis was carried out by Mann-Whitney test using GraphPad Prism software (San Diego, Calif.).

CEM/VLB1000 = assay: Reversal of MDR in P-gp-expressing cell line; type: cell-based; conditions: Homo sapiens, CEM/VLB1000 lymphoma, ± SD
Method: (§2) Cell proliferation IC50s and MDR reversal EC50s were determined from 3-day dose-response curves carried out in triplicate in 96-well plates essentially as described by Monks et al. (J. Natl. Cancer Inst., 83:757-66, 1991). Cells were plated in standard growth medium at 2.5 or 5.0×10^4 per well (CCRF-CEM and CEM/VLB1000 respectively) or 5×10^3 per well (all other cell lines) in a final volume of 100 μl. After a 2 h incubation for non-adherent cells and overnight incubation for adherent cells, the initial cell density was determined by fluorescence readout of Alamar Blue metabolism. The compound of Formula 2, cytotoxic agents, or compound vehicles were added to duplicate plates and the incubation was continued for an additional 72 h. Final cell density was determined with Alamar Blue. In some experiments, a standard endpoint assay was used without analysis of initial cell density with Alamar Blue. Similar results were obtained with the two assays. EC50s were derived by nonlinear regression analysis assuming a sigmoidal dose-response using GraphPad Prism Software (San Diego, Calif.). Proliferation assays capable of measuring both cytostatic and cytotoxic responses were carried out as described herein with 15 non-transformed and transformed cell lines, including primary fibroblasts, non-transformed smooth muscle, leukemia, breast, colon, ovarian and uterine carcinoma cells (±P-gp expression). Although the compound of Formula 2 reversed P-gp-mediated MDR in the low nanomolar concentration range, the compound was non-cytotoxic by itself at doses up to 100 μM in all cell lines. […] IC50s for non-specific cytotoxicity were similar in matched cell lines plus and minus P-gp expression. […] If it were, some consistent degree of resistance would be expected in P-gp expressing cells.

MCF-7/ADR = assay: Reversal of MDR in P-gp-expressing cell line; type: cell-based; conditions: Homo sapiens, NCI/ADR-RES, MCF-7/ADR breast, ± SD
Method: as §2

HCT-15 = assay: Reversal of MDR in P-gp-expressing cell line; type: cell-based; conditions: Homo sapiens; HCT-15 colorectal carcinoma; read-out: Formula 2 compound EC50, reversal of Paclitaxel resistance
Method: as §2

MES-SA/DX5 = assay: Reversal of MDR in P-gp-expressing cell line; type: cell-based; conditions: Homo sapiens, MES-SA/DX5 uterine, ± SD
Method: as §2

SK/VLB1000 = assay: Reversal of MDR in P-gp-expressing cell line; type: cell-based; conditions: Homo sapiens, SK/VLB1000 ovarian
Method: as §2

P450 CYP3A4 = P450 CYP3A4 (Homo sapiens, UniProt P08684); assay: Metabolism by P450 CYP3A4; type: in vitro ADME
From the text: as §1

[3] = PK interaction study, i.v. plasma paclitaxel levels; type: in vivo, SCID/RAG2 mice; conditions: three oral doses of 30 mg/kg before i.v. 16 mg/kg paclitaxel, FIG. 5
Method: At the indicated times after paclitaxel administration, 3 mice per time point were anesthetized with CO2 and blood was removed by cardiac puncture into Microtainer tubes containing EDTA. Plasma samples generated by centrifugation were extracted with acetonitrile and the analysis for paclitaxel content was carried out by HPLC using a Waters 600E multisolvent delivery system, 717 plus autosampler and 996 photodiode array detector. Baccatin III (0.8 nmoles/200 μl plasma) was used as the internal standard (IS) and added to plasma samples during extraction with acetonitrile. Standard curve samples as well as quality control samples were also prepared from spiked control plasma in order to verify the accuracy of the HPLC analysis. […] Waters, Milford, Mass.) with double distilled water (A), and acetonitrile (B), using the following gradient profile: t=0 min, 10% B; t=5 min, 10% B; t=30 min, 65% B; t=40 min, 65% B; t=45 min, 10% B; t=50 min, 10% B. The gradient was formed using a high pressure mixer and the flow rate was 1.0 ml min^−1. A Waters 996 Photo Diode Array Detector was used to scan at multiple wavelengths and chromatograms were processed for traces obtained at 230 nm.

MDA/LCC6^MDR1 = assay: Reversal of MDR in P-gp-expressing cell line; type: cell-based, human; conditions: for EC50: Homo sapiens, MDA/LCC6^MDR1 breast
Method: as §2

[4] = read-out: Formula 2 compound EC50, reversal of Doxorubicin resistance
[5] = read-out: Formula 2 compound EC50, reversal of Vinblastine resistance
[6] = read-out: Formula 2 compound EC50, reversal of Paclitaxel resistance

Sequence of CYP2C8 (P10632 whole entry): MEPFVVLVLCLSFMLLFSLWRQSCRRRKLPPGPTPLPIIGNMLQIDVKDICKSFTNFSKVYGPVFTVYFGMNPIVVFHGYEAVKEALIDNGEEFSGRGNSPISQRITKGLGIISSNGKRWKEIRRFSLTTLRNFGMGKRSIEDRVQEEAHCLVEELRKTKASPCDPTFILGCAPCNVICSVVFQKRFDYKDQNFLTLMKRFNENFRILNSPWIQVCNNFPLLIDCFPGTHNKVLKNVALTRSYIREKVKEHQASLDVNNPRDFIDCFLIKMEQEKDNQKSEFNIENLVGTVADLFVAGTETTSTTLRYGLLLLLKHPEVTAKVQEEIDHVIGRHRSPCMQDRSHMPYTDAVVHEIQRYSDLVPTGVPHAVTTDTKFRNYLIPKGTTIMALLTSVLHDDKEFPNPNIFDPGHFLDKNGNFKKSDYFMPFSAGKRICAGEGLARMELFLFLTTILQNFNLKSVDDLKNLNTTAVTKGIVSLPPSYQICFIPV
Sequence of P450 CYP3A4 (P08684 whole entry): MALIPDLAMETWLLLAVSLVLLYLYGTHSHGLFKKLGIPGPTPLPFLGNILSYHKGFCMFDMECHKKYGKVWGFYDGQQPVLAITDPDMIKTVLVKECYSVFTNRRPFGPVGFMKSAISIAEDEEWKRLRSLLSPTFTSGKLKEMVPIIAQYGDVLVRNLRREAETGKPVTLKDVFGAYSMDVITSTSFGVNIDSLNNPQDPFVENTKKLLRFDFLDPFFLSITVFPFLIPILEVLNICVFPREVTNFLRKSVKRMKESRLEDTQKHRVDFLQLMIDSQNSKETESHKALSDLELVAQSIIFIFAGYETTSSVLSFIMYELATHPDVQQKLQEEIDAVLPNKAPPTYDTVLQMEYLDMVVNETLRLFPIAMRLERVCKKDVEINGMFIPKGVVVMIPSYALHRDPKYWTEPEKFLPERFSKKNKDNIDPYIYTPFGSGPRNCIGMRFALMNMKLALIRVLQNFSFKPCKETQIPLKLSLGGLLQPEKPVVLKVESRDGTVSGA

CCOC/C=C/c1ccc(-c2nc(-c3ccc(NC(C)C)cc3)c(-c3ccc(NC(C)C)cc3)[nH]2)cc1 [Formula 2 compound]
Effect on hot-plate escape time ([1]; co-administration with loperamide, either 20 mg or 40 mg, dose dependent with respect to loperamide): significant increases | Mean time to escape the hot-plate ([1]; in the absence of loperamide): 20 s | Tumor formation (tumor-bearing mice): completely prevented tumor formation at several injection sites | Metabolism by P450 CYP2C8 (CYP2C8): not metabolized | In vivo anti-tumor activity of paclitaxel [2]: did enhance | EC50 (CEM/VLB1000; [4]): 90 ± 60 nM | EC50 (CEM/VLB1000; [5]): 70 ± 10 nM | EC50 (MCF-7/ADR; [4]): 38 ± 6 nM | EC50 (MCF-7/ADR; [6]): 31 ± 4 nM | EC50 (MCF-7/ADR; [5]): 20 ± 10 nM | EC50 (HCT-15): 1.6 nM | EC50 (MES-SA/DX5; [4]): 24 ± 6 nM | EC50 (MES-SA/DX5; [6]): 27 ± 7 nM | EC50 (MES-SA/DX5; [5]): 34 ± 7 nM | EC50 (SK/VLB1000; [6]): 33 nM | EC50 (SK/VLB1000; [5]): 15 nM | EC50 (SK/VLB1000; ± SD, read-out: Formula 2 compound EC50, reversal of Doxorubicin resistance): 25 ± 8 nM | Metabolism by P450 CYP3A4 (P450 CYP3A4): not metabolized | Effect on i.v. plasma paclitaxel levels [3]: no effect | Resistance to paclitaxel treatment in vitro (MDA/LCC6^MDR1; FIG. 1): reversed | EC50 (MDA/LCC6^MDR1; [4]): 13 nM | EC50 (MDA/LCC6^MDR1; [6]): 9 nM
